From patent publication US10093678B2, “Azaspiro derivatives as TRPM8 antagonists” (RaQualia Pharma Inc., priority 2014, dated 2018)

Target: T1, human TRPM8 (Homo sapiens, UniProt Q7Z2W7)
T1 construct: expressed in transfected cells; host or cells: HEK293
Assay: Menthol-induced Ca2+ influx in HEK293 cells stably expressing human TRPM8
Format: cell-based
Settings: 30 microM menthol-induced Ca2+ influx, read-out: IC50 against TRPM8
In short: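 IC50 values were fitted from 11-point dose-response data averaged over duplicate wells. Compound was added for 5 min to Fluo4-loaded HEK293 cells carrying stable human TRPM8, in HBSS/HEPES pH 7.4 with probenecid. Intracellular Ca2+ change after 30 microM menthol addition was then imaged on FDSS.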

T1 sequence (Q7Z2W7 whole entry): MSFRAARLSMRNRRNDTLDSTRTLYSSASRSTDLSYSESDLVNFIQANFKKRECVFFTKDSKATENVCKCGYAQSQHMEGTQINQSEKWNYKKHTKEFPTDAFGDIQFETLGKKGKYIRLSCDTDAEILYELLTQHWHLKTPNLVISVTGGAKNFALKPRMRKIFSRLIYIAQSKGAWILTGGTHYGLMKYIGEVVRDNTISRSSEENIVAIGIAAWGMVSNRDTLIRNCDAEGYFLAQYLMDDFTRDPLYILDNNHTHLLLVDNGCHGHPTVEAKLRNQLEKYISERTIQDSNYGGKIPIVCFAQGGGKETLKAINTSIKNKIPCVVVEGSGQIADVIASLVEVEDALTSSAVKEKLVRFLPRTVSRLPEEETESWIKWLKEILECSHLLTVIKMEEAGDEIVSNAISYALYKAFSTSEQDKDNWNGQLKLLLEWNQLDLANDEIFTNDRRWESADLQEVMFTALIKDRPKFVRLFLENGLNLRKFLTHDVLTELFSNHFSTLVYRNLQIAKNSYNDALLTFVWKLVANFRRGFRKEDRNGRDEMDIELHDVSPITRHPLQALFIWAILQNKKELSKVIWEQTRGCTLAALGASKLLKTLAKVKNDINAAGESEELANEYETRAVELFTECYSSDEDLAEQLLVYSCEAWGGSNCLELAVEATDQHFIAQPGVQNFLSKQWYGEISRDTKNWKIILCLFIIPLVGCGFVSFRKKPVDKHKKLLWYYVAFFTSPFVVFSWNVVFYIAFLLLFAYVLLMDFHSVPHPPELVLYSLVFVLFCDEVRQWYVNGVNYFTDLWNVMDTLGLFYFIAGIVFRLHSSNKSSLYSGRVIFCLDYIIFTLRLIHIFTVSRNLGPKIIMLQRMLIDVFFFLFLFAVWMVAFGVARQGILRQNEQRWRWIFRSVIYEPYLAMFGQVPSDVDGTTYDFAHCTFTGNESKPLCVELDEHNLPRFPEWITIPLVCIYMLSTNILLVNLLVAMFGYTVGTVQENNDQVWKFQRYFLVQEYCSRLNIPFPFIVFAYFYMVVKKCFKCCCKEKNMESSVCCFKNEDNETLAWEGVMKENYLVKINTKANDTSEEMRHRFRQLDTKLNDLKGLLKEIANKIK

IC50 | SMILES
< 100 nM | Cc1sc(C(=O)CN2C(=O)NC3(CCC(F)(F)CC3)C2=O)c(C)c1-c1ccccc1C#N [Example 15-1]
< 100 nM | Cc1sc(C(=O)CN2C(=O)NC3(CCC(F)(F)CC3)C2=O)c(C)c1-c1cccnc1 [Example 15-2]
< 100 nM | Cc1sc(C(=O)CN2C(=O)NC3(CCC(F)(F)CC3)C2=O)c(C)c1-c1cccc(C#N)c1 [Example 15-3]
< 100 nM | Cc1ccncc1-c1c(C)sc(C(=O)CN2C(=O)NC3(CCC(F)(F)CC3)C2=O)c1C [Example 15-4]
< 100 nM | Cc1sc(C(=O)CN2C(=O)NC3(CCC(F)(F)CC3)C2=O)c(C)c1-c1cncnc1 [Example 15-5]
< 10 nM | Cc1sc(C(=O)CN2C(=O)NC3(CCC(F)(F)CC3)C2=O)c(C)c1-c1cncc(F)c1 [Example 15-6]
< 100 nM | Cc1sc(C(=O)CN2C(=O)NC3(CCC(F)(F)CC3)C2=O)c(C)c1-c1cccc(C(N)=O)c1 [Example 15-7]
< 500 nM | Cc1sc(C(=O)CN2C(=O)NC3(CCC(F)(F)CC3)C2=O)c(C)c1-c1ccccc1 [Example 15-8]
< 500 nM | Cc1ccccc1-c1c(C)sc(C(=O)CN2C(=O)NC3(CCC(F)(F)CC3)C2=O)c1C [Example 15-9]
< 500 nM | Cc1sc(C(=O)CN2C(=O)NC3(CCC(F)(F)CC3)C2=O)c(C)c1-c1cncc(C(N)=O)c1 [Example 15-10]
< 500 nM | Cc1cccc(-c2c(C)sc(C(=O)CN3C(=O)NC4(CCC(F)(F)CC4)C3=O)c2C)c1 [Example 15-11]
< 500 nM | Cc1sc(C(=O)CN2C(=O)NC3(CCC(F)(F)CC3)C2=O)c(C)c1-c1cccc(CO)c1 [Example 15-12]
< 100 nM | Cn1c(C(=O)CN2C(=O)NC3(CCC(F)(F)CC3)C2=O)ccc1-c1cccc(C#N)c1 [Example 16-1]
< 100 nM | Cc1ccncc1-c1ccc(C(=O)CN2C(=O)NC3(CCC(F)(F)CC3)C2=O)n1C [Example 16-2]
< 100 nM | Cn1c(C(=O)CN2C(=O)NC3(CCC(F)(F)CC3)C2=O)ccc1-c1cccnc1 [Example 16-3]
< 10 nM | Cc1cc(C(=O)CN2C(=O)NC3(CCC(F)(F)CC3)C2=O)n(C)c1-c1cccc(C#N)c1 [Example 16-4]
< 100 nM | Cc1cc(C(=O)CN2C(=O)NC3(CCC(F)(F)CC3)C2=O)n(C)c1-c1cccc(F)c1 [Example 16-5]
< 100 nM | Cc1cc(C(=O)CN2C(=O)NC3(CCC(F)(F)CC3)C2=O)n(C)c1-c1cccc(C(N)=O)c1 [Example 16-6]
< 100 nM | Cc1cc(C(=O)CN2C(=O)NC3(CCC(F)(F)CC3)C2=O)n(C)c1-c1ccccc1C#N [Example 16-7]
< 100 nM | Cc1cc(C(=O)CN2C(=O)NC3(CCC(F)(F)CC3)C2=O)n(C)c1-c1ccccc1CO [Example 16-8]
< 100 nM | Cc1cc(C(=O)CN2C(=O)NC3(CCC(F)(F)CC3)C2=O)n(C)c1-c1cc(F)cc(F)c1 [Example 16-9]
< 100 nM | Cc1ccncc1-c1c(C)cc(C(=O)CN2C(=O)NC3(CCC(F)(F)CC3)C2=O)n1C [Example 16-10]
< 100 nM | Cc1cc(C(=O)CN2C(=O)NC3(CCC(F)(F)CC3)C2=O)n(C)c1-c1cccnc1 [Example 16-11]
< 100 nM | Cc1cc(C(=O)CN2C(=O)NC3(CCC(F)(F)CC3)C2=O)n(C)c1-c1cccc(Cl)c1 [Example 16-12]
< 100 nM | Cc1cc(C(=O)CN2C(=O)NC3(CCC(F)(F)CC3)C2=O)n(C)c1-c1ccccc1F [Example 16-13]

IC50 | SMILES
< 100 nM | COc1cccc(-c2c(C)cc(C(=O)CN3C(=O)NC4(CCC(F)(F)CC4)C3=O)n2C)c1 [Example 16-14]
< 100 nM | Cc1cc(C(=O)CN2C(=O)NC3(CCC(F)(F)CC3)C2=O)n(C)c1-c1cccc2ccncc12 [Example 16-15]
< 100 nM | Cc1cc(C(=O)CN2C(=O)NC3(CCC(F)(F)CC3)C2=O)n(C)c1-c1cncnc1 [Example 16-16]
< 100 nM | Cc1cc(C(=O)CN2C(=O)NC3(CCC(F)(F)CC3)C2=O)n(C)c1-c1cccc2c1CNC2=O [Example 16-17]
< 100 nM | Cc1cccc(-c2c(C)cc(C(=O)CN3C(=O)NC4(CCC(F)(F)CC4)C3=O)n2C)c1 [Example 16-18]
< 100 nM | Cc1ccccc1-c1c(C)cc(C(=O)CN2C(=O)NC3(CCC(F)(F)CC3)C2=O)n1C [Example 16-19]
< 100 nM | CC(=O)c1cccc(-c2c(C)cc(C(=O)CN3C(=O)NC4(CCC(F)(F)CC4)C3=O)n2C)c1 [Example 16-20]
< 100 nM | Cc1cc(C(=O)CN2C(=O)NC3(CCC(F)(F)CC3)C2=O)n(C)c1-c1cncc(F)c1 [Example 16-21]
< 100 nM | Cc1c(C(=O)CN2C(=O)NC3(CCC(F)(F)CC3)C2=O)cn(C)c1-c1cccc(C#N)c1 [Example 16-22]
< 100 nM | Cc1c(C(=O)CN2C(=O)NC3(CCC(F)(F)CC3)C2=O)cn(C)c1-c1cncc(F)c1 [Example 16-23]
< 100 nM | Cc1c(C(=O)CN2C(=O)NC3(CCC(F)(F)CC3)C2=O)cn(C)c1-c1cccc(F)c1 [Example 16-24]
< 100 nM | Cc1c(C(=O)CN2C(=O)NC3(CCC(F)(F)CC3)C2=O)cn(C)c1-c1ccccc1C#N [Example 16-25]
< 500 nM | Cc1c(C(=O)CN2C(=O)NC3(CCC(F)(F)CC3)C2=O)cn(C)c1-c1cccnc1 [Example 16-26]
< 100 nM | Cc1c(C(=O)CN2C(=O)NC3(CCC(F)(F)CC3)C2=O)cn(C)c1-c1cccc2ccncc12 [Example 16-27]
< 500 nM | Cc1ncccc1-c1c(C)c(C(=O)CN2C(=O)NC3(CCC(F)(F)CC3)C2=O)cn1C [Example 16-28]
< 500 nM | Cn1c(C(=O)CN2C(=O)NC3(CCC(F)(F)CC3)C2=O)ccc1-c1ccccc1C#N [Example 16-29]
< 500 nM | Cn1c(C(=O)CN2C(=O)NC3(CCC(F)(F)CC3)C2=O)ccc1-c1ccccc1CO [Example 16-30]
< 500 nM | Cn1c(C(=O)CN2C(=O)NC3(CCC(F)(F)CC3)C2=O)ccc1-c1cncc(F)c1 [Example 16-31]
< 500 nM | Cc1ccccc1-c1ccc(C(=O)CN2C(=O)NC3(CCC(F)(F)CC3)C2=O)n1C [Example 16-32]
< 500 nM | Cc1cc(C(=O)CN2C(=O)NC3(CCC(F)(F)CC3)C2=O)n(C)c1-c1cncc(C(N)=O)c1 [Example 16-33]
< 500 nM | Cc1c(C(=O)CN2C(=O)NC3(CCC(F)(F)CC3)C2=O)cn(C)c1-c1ccccc1CO [Example 16-34]
< 500 nM | Cc1cc(C(=O)CN2C(=O)NC3(CCC(F)(F)CC3)C2=O)n(C)c1-c1cccc2[nH]ncc12 [Example 16-35]
< 100 nM | Cn1c(-c2cccc(F)c2)cnc1C(=O)CN1C(=O)NC2(CCC(F)(F)CC2)C1=O [Example 17-1]
< 100 nM | Cn1c(-c2cccc3ccncc23)cnc1C(=O)CN1C(=O)NC2(CCC(F)(F)CC2)C1=O [Example 17-2]
< 100 nM | Cn1c(-c2cccc(C#N)c2)cnc1C(=O)CN1C(=O)NC2(CCC(F)(F)CC2)C1=O [Example 17-3]

IC50 | SMILES
< 100 nM | Cn1c(C(=O)CN2C(=O)NC3(CCC(F)(F)CC3)C2=O)nc(C2CC2)c1-c1ccccc1 [Example 17-4]
< 100 nM | Cn1c(C(=O)CN2C(=O)NC3(CCC(F)(F)CC3)C2=O)nc(C2CC2)c1-c1cccnc1 [Example 17-5]
< 10 nM | Cc1nc(C(=O)CN2C(=O)NC3(CCC(F)(F)CC3)C2=O)n(C)c1-c1cccc(F)c1 [Example 17-6]
< 100 nM | Cc1nc(C(=O)CN2C(=O)NC3(CCC(F)(F)CC3)C2=O)n(C)c1-c1ccccc1 [Example 17-7]
< 100 nM | Cc1nc(C(=O)CN2C(=O)NC3(CCC(F)(F)CC3)C2=O)n(C)c1-c1cccc(C#N)c1 [Example 17-8]
< 100 nM | Cc1nc(C(=O)CN2C(=O)NC3(CCC(F)(F)CC3)C2=O)n(C)c1-c1cccc2ccncc12 [Example 17-9]
< 100 nM | Cc1nc(C(=O)CN2C(=O)NC3(CCC(F)(F)CC3)C2=O)n(C)c1-c1ccccc1CO [Example 17-10]
< 100 nM | Cc1nc(C(=O)CN2C(=O)NC3(CCC(F)(F)CC3)C2=O)n(C)c1-c1cc(F)cc(F)c1 [Example 17-11]
< 500 nM | Cc1nc(C(=O)CN2C(=O)NC3(CCC(F)(F)CC3)C2=O)n(C)c1-c1cccnc1 [Example 17-12]
< 500 nM | Cc1ncccc1-c1c(C)nc(C(=O)CN2C(=O)NC3(CCC(F)(F)CC3)C2=O)n1C [Example 17-13]
< 500 nM | Cc1cccc(-c2cnc(C(=O)CN3C(=O)NC4(CCC(F)(F)CC4)C3=O)n2C)c1 [Example 17-14]
< 500 nM | Cn1c(-c2cccnc2)cnc1C(=O)CN1C(=O)NC2(CCC(F)(F)CC2)C1=O [Example 17-15]
< 100 nM | Cc1nc(C(=O)CN2C(=O)NC3(CCC(F)(F)CC3)C2=O)sc1-c1cccnc1 [Example 18-1]
< 10 nM | Cc1ccncc1-c1sc(C(=O)CN2C(=O)NC3(CCC(F)(F)CC3)C2=O)nc1C [Example 18-2]
< 100 nM | Cc1nc(C(=O)CN2C(=O)NC3(CCC(F)(F)CC3)C2=O)sc1-c1cccc(C#N)c1 [Example 18-3]
< 100 nM | Cc1nc(C(=O)CN2C(=O)NC3(CCC(F)(F)CC3)C2=O)sc1-c1ccccc1CO [Example 18-4]
< 100 nM | Cc1nc(C(=O)CN2C(=O)NC3(CCC(F)(F)CC3)C2=O)sc1-c1cccc(F)c1 [Example 18-5]
< 100 nM | Cc1nc(C(=O)CN2C(=O)NC3(CCC(F)(F)CC3)C2=O)sc1-c1ccccc1C#N [Example 18-6]
< 500 nM | Cc1nc(C(=O)CN2C(=O)NC3(CCC(F)(F)CC3)C2=O)sc1-c1cccc(C(N)=O)c1 [Example 18-7]
< 500 nM | Cc1ncccc1-c1sc(C(=O)CN2C(=O)NC3(CCC(F)(F)CC3)C2=O)nc1C [Example 18-8]
< 100 nM | Cc1nc(C(=O)CN2C(=O)NC3(CCC(F)(F)CC3)C2=O)sc1-c1cncc(F)c1 [Example 18-9]
< 100 nM | Cc1nc(C(=O)CN2C(=O)NC3(CCC(F)(F)CC3)C2=O)sc1-c1cccc2ccncc12 [Example 18-10]
< 100 nM | Cc1nc(C(=O)CN2C(=O)NC3(CCC(F)(F)CC3)C2=O)sc1-c1cc(F)cc(F)c1 [Example 18-11]
< 500 nM | Cc1nc(C(=O)CN2C(=O)NC3(CCC(F)(F)CC3)C2=O)sc1-c1cccc2c1CNC2=O [Example 18-12]
